Measurements: the supplement of paper PMC10307832

Columns and labels:
Experiment in all cases: relative viability (nuclei count vs DMSO), 5 days (fraction); higher = more cells survive
[1] = system: COR-L 105
Method in brief: (§1)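 Lung cancer cell lines, seeded in 1536-well plates, were treated the following day by pin tool with a single drug or with five library-drug doses (not always all listed) in √10 steps on top of a fixed anchor-drug dose. Cells were fixed and nuclei stained in one step after 5 days, and nuclei were counted. Relative viability is the nuclei count for treated wells divided by that for vehicle wells, reported as medians of duplicate plates.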

[2] = system: HCC-366
Method in brief: as §1

[3] = system: NCI-H1395
Method in brief: as §1

[4] = system: NCI-H1915
Method in brief: as §1

[5] = system: LCLC-103H
Method in brief: as §1

[6] = system: CAL-12T
Method in brief: as §1

[7] = system: NCI-H727
Method in brief: as §1

[8] = system: HARA
Method in brief: as §1

[9] = system: NCI-H2228
Method in brief: as §1

[10] = system: HOP-62
Method in brief: as §1

[11] = system: NCI-H1792
Method in brief: as §1

[12] = system: NCI-H460
Method in brief: as §1

[13] = system: EMC-BAC-2
Method in brief: as §1

[14] = system: NCI-H1355
Method in brief: as §1

[15] = system: HCC-827
Method in brief: as §1

[16] = system: NCI-H23
Method in brief: as §1

[17] = system: SK-LU-1
Method in brief: as §1

[18] = system: NCI-H1975
Method in brief: as §1

[19] = system: A-427
Method in brief: as §1

[20] = system: NCI-H1755
Method in brief: as §1

[21] = system: NCI-H2009
Method in brief: as §1

[22] = system: SW 1573
Method in brief: as §1

[23] = system: NCI-H1437
Method in brief: as §1

SMILES: C=C1C(=O)O[C@@H](CCCCCCCC)[C@@H]1C(=O)O [C-75] + N=C(N)NC(=N)NCCc1ccccc1 [Phenformin] (partner 250 µM)
- relative viability ([1]; first compound 0.08 µM): 0.507
- relative viability ([1]; first compound 0.253 µM): 0.485
- relative viability ([1]; first compound 0.8 µM): 0.547
- relative viability ([1]; first compound 2.53 µM): 0.436
- relative viability ([1]; first compound 8 µM): 0.436
- relative viability ([2]; first compound 0.08 µM): 0.586
- relative viability ([2]; first compound 0.253 µM): 0.634
- relative viability ([2]; first compound 0.8 µM): 0.61
- relative viability ([2]; first compound 8 µM): 0.571
- relative viability ([3]; first compound 0.08 µM): 0.452
- relative viability ([3]; first compound 0.253 µM): 0.454
- relative viability ([3]; first compound 0.8 µM): 0.435
- relative viability ([3]; first compound 2.53 µM): 0.45
- relative viability ([3]; first compound 8 µM): 0.514
- relative viability ([4]; first compound 0.08 µM): 0.361
- relative viability ([4]; first compound 0.253 µM): 0.375
- relative viability ([4]; first compound 0.8 µM): 0.368
- relative viability ([4]; first compound 2.53 µM): 0.318
- relative viability ([4]; first compound 8 µM): 0.325
- relative viability ([5]; first compound 0.08 µM): 0.325
- relative viability ([5]; first compound 0.253 µM): 0.35
- relative viability ([5]; first compound 0.8 µM): 0.311
- relative viability ([5]; first compound 2.53 µM): 0.253
- relative viability ([5]; first compound 8 µM): 0.389
- relative viability ([6]; first compound 0.08 µM): 0.545
- relative viability ([6]; first compound 0.253 µM): 0.746
- relative viability ([6]; first compound 0.8 µM): 0.567
- relative viability ([6]; first compound 2.53 µM): 0.556
- relative viability ([6]; first compound 8 µM): 0.515
- relative viability ([7]; first compound 0.08 µM): 0.62
- relative viability ([7]; first compound 0.253 µM): 0.879
- relative viability ([7]; first compound 0.8 µM): 0.537
- relative viability ([7]; first compound 8 µM): 0.65
- relative viability ([8]; first compound 0.08 µM): 0.46
- relative viability ([8]; first compound 0.253 µM): 0.487
- relative viability ([8]; first compound 0.8 µM): 0.342
- relative viability ([8]; first compound 2.53 µM): 0.306
- relative viability ([8]; first compound 8 µM): 0.434
- relative viability ([9]; first compound 0.08 µM): 0.294
- relative viability ([9]; first compound 0.253 µM): 0.304
- relative viability ([9]; first compound 0.8 µM): 0.33
- relative viability ([9]; first compound 2.53 µM): 0.244
- relative viability ([9]; first compound 8 µM): 0.277
- relative viability ([10]; first compound 0.08 µM): 0.691
- relative viability ([10]; first compound 0.253 µM): 0.718
- relative viability ([10]; first compound 0.8 µM): 0.647
- relative viability ([10]; first compound 2.53 µM): 0.616
- relative viability ([10]; first compound 8 µM): 0.601
- relative viability ([11]; first compound 0.08 µM): 0.236
- relative viability ([11]; first compound 0.253 µM): 0.216
- relative viability ([11]; first compound 2.53 µM): 0.113
- relative viability ([11]; first compound 8 µM): 0.206
- relative viability ([12]; first compound 0.08 µM): 0.511
- relative viability ([12]; first compound 0.253 µM): 0.534
- relative viability ([12]; first compound 0.8 µM): 0.501
- relative viability ([12]; first compound 8 µM): 0.516
- relative viability ([13]; first compound 0.08 µM): 0.58
- relative viability ([13]; first compound 0.253 µM): 0.478
- relative viability ([13]; first compound 0.8 µM): 0.48
- relative viability ([13]; first compound 2.53 µM): 0.42
- relative viability ([13]; first compound 8 µM): 0.448
- relative viability ([14]; first compound 0.08 µM): 0.488
- relative viability ([14]; first compound 0.253 µM): 0.444
- relative viability ([14]; first compound 0.8 µM): 0.452
- relative viability ([14]; first compound 2.53 µM): 0.401
- relative viability ([14]; first compound 8 µM): 0.484
- relative viability ([15]; first compound 0.08 µM): 0.428
- relative viability ([15]; first compound 0.253 µM): 0.391
- relative viability ([15]; first compound 0.8 µM): 0.38
- relative viability ([15]; first compound 2.53 µM): 0.36
- relative viability ([15]; first compound 8 µM): 0.42
- relative viability ([16]; first compound 0.08 µM): 0.775
- relative viability ([16]; first compound 0.253 µM): 0.758
- relative viability ([16]; first compound 0.8 µM): 0.773
- relative viability ([16]; first compound 2.53 µM): 0.582
- relative viability ([16]; first compound 8 µM): 0.643
- relative viability ([17]; first compound 0.08 µM): 0.52
- relative viability ([17]; first compound 0.253 µM): 0.524
- relative viability ([17]; first compound 0.8 µM): 0.515
- relative viability ([17]; first compound 2.53 µM): 0.425
- relative viability ([17]; first compound 8 µM): 0.423
- relative viability ([18]; first compound 0.08 µM): 0.403
- relative viability ([18]; first compound 0.253 µM): 0.398
- relative viability ([18]; first compound 0.8 µM): 0.389
- relative viability ([18]; first compound 2.53 µM): 0.345
- relative viability ([18]; first compound 8 µM): 0.412
- relative viability ([19]; first compound 0.08 µM): 0.361
- relative viability ([19]; first compound 0.253 µM): 0.342
- relative viability ([19]; first compound 0.8 µM): 0.33
- relative viability ([19]; first compound 2.53 µM): 0.284
- relative viability ([19]; first compound 8 µM): 0.303
- relative viability ([20]; first compound 0.08 µM): 0.633
- relative viability ([20]; first compound 0.253 µM): 0.587
- relative viability ([20]; first compound 0.8 µM): 0.577
- relative viability ([20]; first compound 2.53 µM): 0.529
- relative viability ([20]; first compound 8 µM): 0.607
- relative viability ([21]; first compound 0.08 µM): 0.487
- relative viability ([21]; first compound 0.253 µM): 0.534
- relative viability ([21]; first compound 0.8 µM): 0.448
- relative viability ([21]; first compound 2.53 µM): 0.427
- relative viability ([21]; first compound 8 µM): 0.422
- relative viability ([22]; first compound 0.08 µM): 0.462
- relative viability ([22]; first compound 0.253 µM): 0.351
- relative viability ([22]; first compound 0.8 µM): 0.376
- relative viability ([22]; first compound 2.53 µM): 0.381
- relative viability ([22]; first compound 8 µM): 0.244
- relative viability ([23]; first compound 0.08 µM): 0.322
- relative viability ([23]; first compound 0.253 µM): 0.323
- relative viability ([23]; first compound 0.8 µM): 0.302
- relative viability ([23]; first compound 2.53 µM): 0.284
- relative viability ([23]; first compound 8 µM): 0.296
